In test [1] the test system is HeLa. As to the kind of experiment: Induction of apoptosis in human HeLa cells assessed as nuclear fragmentation at 1 uM after 48 hrs by Hoechst 33342 staining-based fluorescence microscopic analysis. Format: functional, cell-based.
In test [2] the test system is HeLa. In words: Cell cycle arrest in human HeLa cells assessed as accumulation at S phase at 0.5 uM after 24 hrs by propidium iodide staining-based FACS analysis (reference value: 4.62%). Format: functional.
Test [3] relates to HeLa. In words: Cytotoxicity against human HeLa cells after 72 hrs by MTT assay. Format: functional, cell-based.
Test [4] has as its system HeLa. As to the kind of experiment: Induction of apoptosis in human HeLa cells assessed as […] condensation at 1 uM after 48 hrs by Hoechst 33342 staining-based fluorescence microscopic analysis. Format: functional, cell-based.
For the next test, the system named is DU-145. As to the kind of experiment: Cytotoxicity against human DU145 cells after 72 hrs by MTT assay. Format: functional, cell-based. The conditions noted are these: DU-145, 72 h.
Test [5] is described as follows: Cytotoxicity against human ME180 cells after 72 hrs by MTT assay. Format: functional, cell-based. The note with it: ME-180, 72 h.
The test system of the next test is B16. In words: Cytotoxicity against mouse B16 cells after 72 hrs by MTT assay. Format: functional, cell-based. The note with it: B16, 72 h.
The target of another test is Tubulin. In words: Inhibition of tubulin (unknown origin) polymerization measured for 1 hr by fluorescence assay in presence of GTP. Format: protein-complex assay, Homo sapiens.
In the next test the test system is HT-29. As to the kind of experiment: Cytotoxicity against human HT-29 cells after 72 hrs by MTT assay. Format: functional, cell-based. The note with it: HT-29, 72 h.
The subject of test [6] is HeLa. As to the kind of experiment: Induction of apoptosis in human HeLa cells assessed as presence of apoptotic bodies at 1 uM after 48 hrs by Hoechst 33342 staining-based fluorescence microscopic analysis. Format: functional, cell-based.
Test [7] relates to HeLa. As to the kind of experiment: Cell cycle arrest in human HeLa cells assessed as accumulation at G2/M phase at 0.5 uM after 24 hrs by propidium iodide staining-based FACS analysis (reference value: 21.10%). Format: functional.
Test [8] relates to HeLa. In words: Cell cycle arrest in human HeLa cells assessed as accumulation at G1 phase at 0.5 uM after 24 hrs by propidium iodide staining-based FACS analysis (reference value: 71.21%). Format: functional.
In test [9] the target is T1, Tubulin (Homo sapiens) (UniProt P68371+Q9H4B7+P0DPH7+P68366+Q13509+Q71U36+P04350+Q3ZCM7+P07437+P68363+Q9BQE3+Q6PEY2+Q13885+Q9BVA1+Q9BUF5). As to the kind of experiment: Inhibition of tubulin polymerization in human HeLa cells assessed as disruption of microtubule organization at 1 uM after 48 hrs by immunohistochemical analysis. Format: cell-based.
Test [10] relates to HeLa. As to the kind of experiment: Cell cycle arrest in human HeLa cells assessed as accumulation at sub-G1 phase at 0.5 uM after 24 hrs by propidium iodide staining-based FACS analysis (reference value: 3.07%). Format: functional.
Test [11] deals with HeLa. As to the kind of experiment: Induction of apoptosis in human HeLa cells assessed as DNA fragmentation at 1 to 2 uM after 48 hrs by agarose gel electrophoresis. Format: functional, cell-based.
The subject of the next test is PC-3. As to the kind of experiment: Cytotoxicity against human PC3 cells after 72 hrs by MTT assay. Format: functional, cell-based. The conditions noted are these: PC-3, 72 h.
For test [12], the system named is HeLa. In words: Induction of apoptosis in human HeLa cells assessed as caspase-3 activation at 2 uM after 48 hrs by Ac-DEVD fluorescence assay relative to control. Format: functional.
The next test concerns COLO 205. In words: Cytotoxicity against human COLO205 cells after 72 hrs by MTT assay. Format: functional, cell-based. The note with it: COLO 205, 72 h.
The target of test [13] is T1, Tubulin (Homo sapiens). In words: Inhibition of tubulin (unknown origin) polymerization at 5 uM measured for 1 hr by fluorescence assay in presence of GTP relative to control. Format: protein-complex assay.

Activity calls are given as the source filed them. No cut-off for these calls is given here.

Turning to `COc1ccc(C(=O)c2cc(OC)c(OC)c(OC)c2)cc1NC(=O)/C=C/c1ccc(C(F)(F)F)cc1`, the result in the test with HeLa [1], in the test on HeLa [4], with HeLa [6] and in the test on HeLa [11] was Active. Moreover, the Activity in the test with HeLa [2] was 5.92%; with HeLa [7], 38.82%; in the test on HeLa [8], 49.59%; in the test on HeLa [10] it was 5.66%. Besides, the IC50 came out at 0.09 µM in the test on HeLa [3]; 4.3 µM in the test with DU-145; 0.8 µM in test [5]; 0.1 µM in the test on B16; 0.7 µM on Tubulin; 1.6 µM in the test with HT-29. In addition, the values for the IC50 in the test on PC-3 and in the test with COLO 205 were 3.5 µM and 2.6 µM, respectively. The inhibition entry on Tubulin (Homo sapiens) [9] is “Active”. In addition, the “fold change (FC)” value in the test on HeLa [12] turned out to be 5. The inhibition at Tubulin (Homo sapiens) [13] was determined as 59.4%.
For `COc1ccc(C(=O)c2cc(OC)c(OC)c(OC)c2)cc1NC(=O)/C=C/c1ccc(F)cc1`, the result in the test on HeLa [1], in the test with HeLa [4], in the test with HeLa [6] and in the test on HeLa [11] was Active. Further, the Activity in the test with HeLa [2] worked out at 7.4%; in the test with HeLa [7], 36.62%; with HeLa [8] it was 53.02%; in the test with HeLa [10], 2.96%. The IC50 in the test with HeLa [3] was found to be 0.06 µM; with DU-145, 3.9 µM; in test [5], 0.3 µM; with B16, 0.4 µM; at Tubulin it was 0.6 µM; with HT-29, 1.8 µM. The IC50 turned out to be 3.2 µM in the test on PC-3 and 3.4 µM with COLO 205. In addition, the inhibition entry at Tubulin (Homo sapiens) [9] was “Active”. In the test with HeLa [12], the “fold change (FC)” value was determined as 5. Also, on Tubulin (Homo sapiens) [13], the inhibition was 60.5%.
